Reference: ChEMBL document CHEMBL2203134, “Discovery of XL888: a novel tropane-derived small molecule inhibitor of HSP90” (Bioorg Med Chem Lett, 2012)
In brackets after ≈: the same amount, converted by molar mass. Activity calls are given as the source filed them. No cut-off for these calls is given here.

Legend:
[1] = Clearance in rat at 5 mg/kg, iv; assay type: ADME, organism-based; set-up: dose 5 mg/kg, route intravenous; conditions: in vivo
[2] = Oral bioavailability in rat at 5 mg/kg; assay type: ADME, organism-based; conditions: in vivo
Mus musculus [3] = test: Inhibition of Hsp90 in human COLO205 cells xenografted in mouse assessed as Raf1 degradation at 100 mg/kg administered QD for 2 days measured 8 hrs post-last dose; assay type: functional; conditions: COLO 205
[4] = Kinetic solubility of the compound; assay type: physicochemical; conditions: read-out: Kinetic_solubility
Heat shock protein HSP90 [5] = biological target: T1, Heat shock protein HSP90 (Homo sapiens, UniProt P07900+P08238); test: Displacement of biotinylated geldanamycin from human His-tagged Hsp90 by TR-FRET assay; assay type: protein assay
[6] = Half life in rat at 5 mg/kg, iv; assay type: ADME, organism-based; set-up: dose 5 mg/kg, route intravenous; conditions: in vivo
[7] = Drug uptake in human COLO205 tumor xenografted in mouse at 100 mg/kg administered QD for 2 days measured 8 hrs post-last dose; assay type: ADME, organism-based, Neoplasm; set-up: dose 100 mg/kg; conditions: human COLO205 tumor xenograft, read-out: Drug uptake
[8] = Apparent permeability across MDCK cells; assay type: ADME, cell-based, Canis lupus familiaris; conditions: dog
Mus musculus [9] = test: Inhibition of Hsp90 in human COLO205 cells xenografted in mouse assessed as Her2 degradation at 100 mg/kg administered QD for 2 days measured 8 hrs post-last dose; assay type: functional; conditions: COLO 205
Rattus norvegicus = test: Dose normalized AUC in rat at 5 mg/kg, iv; assay type: ADME, organism-based; set-up: dose 5 mg/kg, route intravenous; conditions: in vivo
[10] = Drug metabolism in human liver microsomes at 15 uM after 30 mins; assay type: ADME, Microsome; conditions: read-out: Drug metabolism
[11] = Drug metabolism in mouse liver microsomes at 15 uM after 30 mins; assay type: ADME, Microsome; conditions: read-out: Drug metabolism
Heat shock protein HSP90 [12] = biological target: T1, Heat shock protein HSP90; test: Inhibition of Hsp90 in human A549 cells assessed as Raf1 degradation after 24 hrs by Western blot analysis; assay type: cell-based
NCI-N87 [13] = test: Antitumor activity against human NCI-N87 cells xenografted in mouse assessed as tumor growth inhibition at 100 mg/kg administered QD for 3 days in a week relative to control; assay type: functional; conditions: NCI-N87, 72 h, read-out: TGI
Mus musculus [14] = test: Inhibition of Hsp90 in human NCI-N87 cells xenografted in mouse assessed as Her2 degradation at 100 mg/kg administered QD for 3 days measured at 8 hrs post-last dose relative to control; assay type: functional
[15] = Drug uptake in human NCI-N87 tumor xenografted in mouse at 100 mg/kg administered QD for 3 days measured at 8 hrs post-last dose; assay type: ADME, organism-based, Neoplasm; set-up: dose 100 mg/kg; conditions: human NCI-N87 tumor xenograft, read-out: Drug uptake
Mus musculus [16] = test: Inhibition of Hsp90 in human NCI-N87 cells xenografted in mouse assessed as Hsp70 upregulation at 100 mg/kg administered QD for 3 days measured at 8 hrs post-last dose relative to control; assay type: functional
COLO 205 = test: Antiproliferative activity against human COLO205 cells overexpressing Braf after 48 hrs by BrdU labeling assay; assay type: functional, cell-based; conditions: COLO 205, 48 h
HN5 = test: Antiproliferative activity against human HN5 cells overexpressing EGFR after 48 hrs by BrdU labeling assay; assay type: functional, cell-based; conditions: HN5, 48 h
SK-MEL-28 = test: Antiproliferative activity against human SK-MEL-28 cells overexpressing Braf after 48 hrs by BrdU labeling assay; assay type: functional, cell-based; conditions: SK-MEL-28, 48 h
NCI-N87 [17] = test: Antiproliferative activity against human NCI-N87 cells overexpressing Her2 after 48 hrs by BrdU labeling assay; assay type: functional, cell-based; conditions: NCI-N87, 48 h
NCI-H1975 = test: Antiproliferative activity against human NCI-H1975 cells overexpressing EGFR after 48 hrs by BrdU labeling assay; assay type: functional, cell-based; conditions: NCI-H1975, 48 h
MDA-MB-453 = test: Antiproliferative activity against human MDA-MB-453 cells overexpressing Her2 after 48 hrs by BrdU labeling assay; assay type: functional, cell-based; conditions: MDA-MB-453, 48 h
[18] = Plasma concentration in mouse xenografted with human NCI-N87 cells at 100 mg/kg administered QD for 3 days measured 24 hrs post-last dose; assay type: ADME, organism-based; set-up: dose 100 mg/kg
Plasma = test: Plasma concentration in mouse xenografted with human NCI-N87 cells at 100 mg/kg administered QD for 3 days measured 96 hrs post-last dose; assay type: ADME, organism-based; set-up: dose 100 mg/kg; conditions: in vivo, BLD = below limit of detection
[19] = Drug uptake in human NCI-N87 tumor xenografted in mouse at 100 mg/kg administered QD for 3 days measured at 24 hrs post-last dose; assay type: ADME, organism-based, Neoplasm; set-up: dose 100 mg/kg; conditions: human NCI-N87 tumor xenograft, read-out: Drug uptake
BT-474 = test: Antiproliferative activity against human BT474 cells overexpressing Her2 after 48 hrs by BrdU labeling assay; assay type: functional, cell-based; conditions: BT-474, 48 h
A549 = test: Antiproliferative activity against human A549 cells overexpressing Kras after 48 hrs by BrdU labeling assay; assay type: functional, cell-based; conditions: A549, 48 h
Heat shock protein HSP90 [20] = biological target: T1, Heat shock protein HSP90; test: Inhibition of Hsp90 in human NCI-N87 cells assessed as Her2 degradation after 24 hrs by Western blot analysis; assay type: cell-based
Mus musculus [21] = test: Inhibition of Hsp90 in human NCI-N87 cells xenografted in mouse assessed as Raf1 degradation at 100 mg/kg administered QD for 3 days measured at 8 hrs post-last dose relative to control; assay type: functional
Mus musculus [22] = test: Inhibition of Hsp90 in human NCI-N87 cells xenografted in mouse assessed as Raf1 degradation at 100 mg/kg administered QD for 3 days measured after 8 hrs post-last dose relative to control; assay type: functional, organism-based; set-up: dose 100 mg/kg
MCF7 = test: Antiproliferative activity against human MCF7 cells overexpressing PI3K after 48 hrs by BrdU labeling assay; assay type: functional, cell-based; conditions: MCF7, 48 h
[23] = Plasma concentration in mouse xenografted with human NCI-N87 cells at 100 mg/kg administered QD for 3 days measured 8 hrs post-last dose; assay type: ADME, organism-based; set-up: dose 100 mg/kg
MKN-45 = test: Antiproliferative activity against human MKN45 cells overexpressing MET after 48 hrs by BrdU labeling assay; assay type: functional, cell-based; conditions: MKN-45, 48 h
NCI-N87 [24] = test: Antitumor activity against human NCI-N87 cells xenografted in mouse assessed as tumor growth inhibition at 60 mg/kg administered QD relative to control; assay type: functional; conditions: read-out: TGI
Mus musculus [25] = test: Inhibition of Hsp90 in human NCI-N87 cells xenografted in mouse assessed as Hsp70 upregulation at 100 mg/kg administered QD for 3 days measured at 96 hrs post-last dose relative to control; assay type: functional
Mus musculus [26] = test: Inhibition of Hsp90 in human NCI-N87 cells xenografted in mouse assessed as Her2 degradation at 100 mg/kg administered QD for 3 days measured up to 48 hrs post-last dose relative to control; assay type: functional
NCI-N87 [27] = test: Antitumor activity against human NCI-N87 cells xenografted in mouse assessed as tumor regression at 100 mg/kg administered QD for 3 days in a week relative to control; assay type: functional
[28] = Drug uptake in human NCI-N87 tumor xenografted in mouse at 100 mg/kg administered QD for 3 days measured at 96 hrs post-last dose; assay type: ADME, organism-based, Neoplasm; set-up: dose 100 mg/kg; conditions: human NCI-N87 tumor xenograft, read-out: Drug uptake

COc1cccc(C(=O)NC2CC3CCC(C2)N3c2ccc(C(N)=O)cn2)c1C (centres undefined)
clearance [1]: 6.15 mL/min/kg
bioavailability [2]: 81%
inhibition (Mus musculus [3]): inactive
solubility kinetic [4]: 470 µM (≈ 185 µg/mL)
IC50 (Heat shock protein HSP90 [5]): 641 nM
half-life [6]: 2.1 h
concentration at 8 h [7]: 6700 nM
Papp [8]: 13.3 ×10⁻⁶ cm/s
inhibition in vivo at 100 mg/kg (Mus musculus [9]): 63%
AUC/dose (Rattus norvegicus): 6.3 µM·kg·h/mg
metabolised at 0.5 h, 15 µM [10]: 21%
metabolised at 0.5 h, 15 µM [11]: 29%
IC50 (Heat shock protein HSP90 [12]): 3800 nM

CC[C@@H](C)Nc1cc(C(=O)NC2CC3CCC(C2)N3c2ccc(C(=O)C3CC3)cn2)c(C)cc1C(N)=O (some centres undefined)
inhibition in vivo at 100 mg/kg (NCI-N87 [13]): > 100%
inhibition in vivo at 100 mg/kg (Mus musculus [14]): 92%
clearance [1]: 15.3 mL/min/kg
bioavailability [2]: 30%
concentration at 8 h [15]: 5390 nM
inhibition in vivo at 100 mg/kg (Mus musculus [16]): 234%
IC50 (COLO 205): 11.6 nM
IC50 (HN5): 5.5 nM
half-life [6]: 1.4 h
IC50 (SK-MEL-28): 0.3 nM
IC50 (NCI-N87 [17]): 21.8 nM
IC50 (NCI-H1975): 0.7 nM
IC50 (MDA-MB-453): 16 nM
concentration at 24 h [18]: 70 nM
Cp (Plasma): BLD
concentration at 24 h [19]: 2860 nM
Papp [8]: 32 ×10⁻⁶ cm/s
IC50 (BT-474): 0.1 nM
IC50 (A549): 4.3 nM
AUC/dose (Rattus norvegicus): 2.23 µM·kg·h/mg
IC50 (Heat shock protein HSP90 [20]): 56 nM
inhibition in vivo at 100 mg/kg (Mus musculus [21]): 56%
inhibition (Mus musculus [22]): inactive
IC50 (MCF7): 4.1 nM
concentration at 8 h [23]: 2260 nM
IC50 (MKN-45): 45.5 nM
inhibition in vivo at 60 mg/kg (NCI-N87 [24]): 100%
inhibition in vivo at 100 mg/kg (Mus musculus [25]): 343%
inhibition in vivo at 100 mg/kg (Mus musculus [26]): 75%
Activity (NCI-N87 [27]): 21%
concentration at 96 h [28]: 1820 nM
